In paper PMC7506137, “Selective Phosphodiesterase 1 Inhibitor BTTQ Reduces Blood Pressure in Spontaneously Hypertensive and Dahl Salt Sensitive Rats: Role of Peripheral Vasodilation” (Frontiers in Physiology, 2020):
Where two headings read alike, the source gives them in different places.

Experiment: Plasma exposure (dried blood spot) after single oral dose
Type: in vivo
Details: male, Sprague Dawley, rat, whole blood (dried blood spot), po
Procedure: Male Sprague Dawley rats at 6 to 7 weeks were dosed orally by p.o. gavage with different doses of BTTQ formulated in 1% hydroxyethlycellulose (Dow Corning, Midland, MI, United States) (w/v), 0.25% polysorbate 80 (Sigma-Aldrich, St. Louis, MO, United States) (v/v), and 0.05% antifoam (v/v; Dow Corning, Midland, MI, United States) in purified water. Following dosing, ear temperature was measured by using a k-type thermocouple probe digital thermometer (Cole Parmer) every hour for 6 h and then at 24 h. Blood samples for plasma exposure measurement were obtained at the same time. Blood was collected via a tail snip directly into a 20-μL EDTA-coated capillary and immediately spotted onto a Whatman DMPK-C DBS card (GE Healthcare Bio-Sciences). Tail snips were performed by removing approximately 1 mm of the tail by using a scalpel. Blood flow was initiated by gentle squeezing of the tail. No analgesia or anesthesia was used during blood collections. A single sample and spot were collected per time point. The DBS cards were allowed to dry for approximately 2 h at room temperature, after which the cards were placed in a zip-top bag, stored, and shipped at ambient temperature.

[1] = 0.03 mg/kg, oral 0.03 mg/kg, FU 0.053, read-out: Unbound Concentration, Mean
[2] = 0.03 mg/kg, oral 0.03 mg/kg, dried blood spot, read-out: Concentration, Mean
[3] = 0.03 mg/kg, oral 0.03 mg/kg, FU 0.053, read-out: Unbound Concentration, individual animals
[4] = 0.03 mg/kg, oral 0.03 mg/kg, dried blood spot, read-out: Concentration, individual animals
[5] = 0.1 mg/kg, oral 0.1 mg/kg, FU 0.053, read-out: Unbound Concentration, Mean
[6] = 0.1 mg/kg, oral 0.1 mg/kg, FU 0.053, read-out: Unbound Concentration, individual animals
[7] = 0.1 mg/kg, oral 0.1 mg/kg, dried blood spot, read-out: Concentration, Mean
[8] = 0.1 mg/kg, oral 0.1 mg/kg, dried blood spot, read-out: Concentration, individual animals
[9] = 0.3 mg/kg, oral 0.3 mg/kg, FU 0.053, read-out: Unbound Concentration, Mean
[10] = 0.3 mg/kg, oral 0.3 mg/kg, FU 0.053, read-out: Unbound Concentration, individual animals
[11] = 0.3 mg/kg, oral 0.3 mg/kg, dried blood spot, read-out: Concentration, Mean
[12] = 0.3 mg/kg, oral 0.3 mg/kg, dried blood spot, read-out: Concentration, individual animals
[13] = 1 mg/kg, oral 1 mg/kg, FU 0.053, read-out: Unbound Concentration, Mean

SMILES: O=c1c2nnc(C3(C4CC4)CC3)n2c2c(n1CC1CC1)CCCC2 [BTTQ, 1-[1,1′-bi(cyclopropyl)-1-yl]-5-(cyclopropylmethyl)-6,7,8,9-tetrahydro[1,2,4]triazolo[4,3-A]quinoxaline-4(5H)-one]
- concentration at 1 h [1]: 2.52 nM
- concentration at 1 h [2]: 47.5 nM
- concentration at 2 h [1]: 2.66 nM
- concentration at 2 h [3]: 2.17 nM
- concentration at 2 h [2]: 50.2 nM
- concentration at 2 h [4]: 40.9 nM
- concentration at 3 h [1]: 2.23 nM
- concentration at 3 h [3]: 2.04 nM
- concentration at 3 h [2]: 42.1 nM
- concentration at 3 h [4]: 38.4 nM
- concentration at 4 h [1]: 1.81 nM
- concentration at 4 h [3]: 1.67 nM
- concentration at 4 h [2]: 34.2 nM
- concentration at 4 h [4]: 31.6 nM
- concentration at 5 h [1]: 1.5 nM
- concentration at 5 h [3]: 1.86 nM
- concentration at 5 h [2]: 28.3 nM
- concentration at 5 h [4]: 35.1 nM
- concentration at 6 h [1]: 1.16 nM
- concentration at 6 h [2]: 22 nM
- concentration at 24 h [1]: 0 nM
- concentration at 24 h [2]: 0 nM
- concentration at 1 h [5]: 10.6 nM
- concentration at 1 h [6]: 13.2 nM
- concentration at 1 h [7]: 201 nM
- concentration at 1 h [8]: 249 nM
- concentration at 2 h [5]: 10 nM
- concentration at 2 h [6]: 11.7 nM
- concentration at 2 h [7]: 189 nM
- concentration at 2 h [8]: 220 nM
- concentration at 3 h [5]: 8.98 nM
- concentration at 3 h [6]: 8.9 nM
- concentration at 3 h [7]: 169 nM
- concentration at 3 h [8]: 168 nM
- concentration at 4 h [5]: 6.75 nM
- concentration at 4 h [6]: 7.1 nM
- concentration at 4 h [7]: 127 nM
- concentration at 4 h [8]: 134 nM
- concentration at 5 h [5]: 5.13 nM
- concentration at 5 h [6]: 5.99 nM
- concentration at 5 h [7]: 96.9 nM
- concentration at 5 h [8]: 113 nM
- concentration at 6 h [5]: 4.61 nM
- concentration at 6 h [6]: 4.62 nM
- concentration at 6 h [7]: 87 nM
- concentration at 6 h [8]: 87.1 nM
- concentration at 24 h [5]: 0.462 nM
- concentration at 24 h [6]: 2.31 nM
- concentration at 24 h [7]: 8.7 nM
- concentration at 24 h [8]: 43.5 nM
- concentration at 1 h [9]: 27.7 nM
- concentration at 1 h [10]: 24.2 nM
- concentration at 1 h [11]: 523 nM
- concentration at 1 h [12]: 456 nM
- concentration at 2 h [9]: 23.7 nM
- concentration at 2 h [10]: 19.3 nM
- concentration at 2 h [11]: 447 nM
- concentration at 2 h [12]: 364 nM
- concentration at 3 h [9]: 16.6 nM
- concentration at 3 h [10]: 14.7 nM
- concentration at 3 h [11]: 314 nM
- concentration at 3 h [12]: 278 nM
- concentration at 4 h [9]: 11.8 nM
- concentration at 4 h [10]: 12.3 nM
- concentration at 4 h [11]: 223 nM
- concentration at 4 h [12]: 232 nM
- concentration at 5 h [9]: 8.68 nM
- concentration at 5 h [10]: 8.75 nM
- concentration at 5 h [11]: 164 nM
- concentration at 5 h [12]: 165 nM
- concentration at 6 h [9]: 6.73 nM
- concentration at 6 h [10]: 7.26 nM
- concentration at 6 h [11]: 127 nM
- concentration at 6 h [12]: 137 nM
- concentration at 24 h [9]: 0 nM
- concentration at 24 h [11]: 0 nM
- concentration at 1 h [13]: 92.5 nM
- concentration at 1 h (1 mg/kg, oral 1 mg/kg, dried blood spot, read-out: Concentration, Mean): 1750 nM
- concentration at 2 h [13]: 87.6 nM
